Laboratory results reported in patent US5470873A, “Diabetes prevention and treatment using gamma-pyrones” (University Technologies International, Inc., priority 1994, dated 1995).
Several values for one entry are separate records, joined by “and”; a condition that tells them apart may be missing. Equal values may be shown once. Entries after “also recorded” stand apart in the source; their conditions may differ.

Legend:
[1] = Pancreatic insulin content (immunoreactive insulin, radioimmunoassay) in NOD mice; assay type: in vivo; settings: NOD mice
Description: Insulin was extracted from the pancreas of non-obese diabetic (NOD) mouse by known methods ^33,34. Briefly, deep frozen pancreatic tissue (50% of each pancreas) was placed into phosphate buffered saline (PBS) and then extraction solution A (380 ml absolute alcohol, 20 ml H2 O, 8 ml concentrated HCl and some drops of alcoholic phenol red) was added. This mixture was homogenized with polytron type PT 10-20-[…] in glass tubes (15×125 mm) for 30 seconds in position 5. The homogenized material in the tubes was incubated at 4° C. for 10 hours. At the end of the incubation period, the homogenized material was centrifuged at 800 g for 5 minutes for clarification. The supernatant was saved. The pellet was re-extracted with 1 ml of extraction solution B (356 ml absolute alcohol, 124 ml H2 O and 7.5 ml HCl). The pellet in extraction solution B was incubated for 4 hours at 4° C. and then homogenized with a polytron as described above. The homogenized material was centrifuged at 800 g for 5 minutes. The supernatant was pooled with the supernatant from the first extraction. The pooled supernatant was neutralized with concentrated NH40 H (about 10 μl ) until the phenol red turned to purple. The neutralized supernatant was precipitated at 4° C. and then centrifuged at 800 g for 5 min. The supernatant, which contains insulin, was used for the measurement of insulin by radioimmunoassay. The concentration of immunoreactive insulin (IRI) in the pancreas from DPD-treated and untreated NOD mice was measured by radioimmunoassay techniques ^42-44 using mouse insulin as a standard. Briefly, the extracted samples from NOD mice were mixed with […], and anti-insulin antibody. The mixed materials were incubated for 2 hours at room temperature. At the end of the incubation period, anti-guinea pig IgG raised in sheep was added and the mixture was incubated for 30 minutes at room temperature. At the end of the incubation, the samples were centrifuged at 1500 g for 10 minutes. The supernatant was completely removed. The radioactivity of the pellets was measured. The percent of activity was determined by the following formula: [formula] On the basis of % activity in standards, a standard curve was constructed. The concentration of each unknown sample from maltol-treated or untreated NOD pancreas was read on the basis of the standard curve. […] The maltol-treated mice have insulin levels that are similar to the non-diabetic, untreated animals. About 75% of the maltol-treated mice have insulin levels over 80 μg/g pancreas and about 25% have insulin levels between 55-75 μg/g pancreas.

[2] = Prevention of clinical diabetes (glycosuria) in NOD mice; assay type: in vivo; settings: observed to 35 weeks, incl. 15 weeks after cessation of treatment
Description: NOD mice were dosed with maltol to evaluate its effect on the pathogenesis of type I diabetes. Mice received 5 mg maltol/mouse every other day from age 2 weeks until they were 20 weeks old. Maltol extracted from ginseng as described in Example 2 was used for the first 10 weeks, then maltol purchased from Sigma Co., St. Louis, MO was used thereafter. The mice were kept until they were 35 weeks old. Urine glucose was measured at 3-day intervals from 10 to 35 weeks of age. Urinary glucose and ketone levels were determined using Diastix and Ketostix reagent slips (Miles, Ontario, Canada). Individual mice were classified as being diabetic on the basis of positive glycosuria^38. […] In contrast, 78% of age-matched control mice (22 mice) spontaneously developed autoimmune diabetes. At 35 weeks of age, fasting (8 hours of fasting) and non-fasting blood glucose levels were measured. Blood was obtained from the retro-orbital venous plexus of fasting and nonfasting NOD mice. Glucose levels were measured enzymatically by the glucose oxidase method with o-dianisidine dihydrochloride as the reactive dye ^39-41 . The mean nonfasting blood glucose level of 35 ICR mice (nondiabetic control mice; NOD mice were derived from ICR mice) was 149±27 mg/dl. Any non-fasting mouse with a blood glucose level greater than 230 mg/dl (3 SD above the mean) was scored as diabetic. The mean fasting blood glucose level of 38 ICR mice was 137±28 mg/dl. Any fasting mouse with a blood glucose level greater than 221 mg/dl (3 SD above the mean) was scored as diabetic.

pancreatic islets = experiment: Histologic changes of pancreatic islets (hematoxylin and eosin); assay type: in vivo, NOD mice; parameters: key to Diabetes: "+" indicates "yes"; "-" indicates "no"
From the text: Maltol-treated and untreated NOD mice were sacrificed and 25% of each pancreas was fixed in 6% Formalin. Paraffin-embedded sections were stained with hematoxylin and eosin and examined under an Olympus light microscope ^49. To see whether there are any histological differences between the pancreatic islets of DPD-treated and untreated NOD mice, the pancreatic islets of 35 week old mice were examined with the light microscope after staining with hematoxylin and eosin. […] The rest of their islets were rated as having either severe (22%), moderate (27%), mild (25%) or no (6%) insulitis. […] In addition, there were histopathological changes in their pancreatic islets that were rated as moderate (22% of examined islets), mild (30%) or as having no insulitis (15%).

[3] = individual DPD-treated non-diabetic NOD mice (animal 1-5), 35 weeks

Compound: Cc1occc(=O)c1O [DPD, maltol]
- Pancreatic insulin / protection from beta cell destruction (in words) [1]: prevents depression of pancreatic insulin levels
- Prevention / recurrence of clinical diabetes (in words) [2]: no recurrence of the disease; also recorded: prevented clinical diabetes completely; also recorded: prevents the onset of clinical diabetes
- Diabetes (pancreatic islets; Table 2, individual DPD-treated NOD mice): -
- Mild histopathological changes, share of examined islets (pancreatic islets; group of DPD-treated NOD mice): 30%
- Moderate histopathological changes, share of examined islets (pancreatic islets; group of DPD-treated NOD mice): 22%
- No insulitis, share of examined islets (pancreatic islets; group of DPD-treated NOD mice): 15%
- Severe insulitis, share of examined islets (pancreatic islets; group of DPD-treated NOD mice, untreated diabetic 35%): about 19%
- Severe beta cell necrosis, share of examined islets (pancreatic islets; group of DPD-treated NOD mice, untreated diabetic 64%): approximately 14%
- Beta Cell Necrosis, islets affected / islets examined (pancreatic islets; [3]): 5/31 and 5/32 and 3/28 and 4/32
- Beta Cell Necrosis, percent of islets (pancreatic islets; [3]): 16% and 11% and 13%
- Intact Islet, islets / islets examined (pancreatic islets; [3]): 4/31 and 5/32 and 4/28
- Intact Islet, percent of islets (pancreatic islets; [3]): 19% and 15% and 14% and 13%
- Mild Insulitis, islets affected / islets examined (pancreatic islets; [3]): 9/31 and 8/32 and 11/28 and 10/31 and 9/32
- Mild Insulitis, percent of islets (pancreatic islets; [3]): 29% and 25% and 39% and 33% and 28%
- Moderate Insulitis, islets affected / islets examined (pancreatic islets; [3]): 7/31 and 8/32 and 5/28 and 6/31
- Moderate Insulitis, percent of islets (pancreatic islets; [3]): 23% and 25% and 18% and 19%
- Severe Insulitis, islets affected / islets examined (pancreatic islets; [3]): 6/31 and 6/32 and 5/28
- Severe Insulitis, percent of islets (pancreatic islets; [3]): 19% and 18%
